Patent US5583155A, “6-amino-1,2-benzopyrones useful for treatment of viral diseases” (Octamer, Inc., priority 1994, dated 1996)
Values after ≈ are worked out from the molar mass of the structure shown. “Also recorded” adds a separate entry of the source. Read-outs that look alike come from different tables or passages of the source.

How the values were obtained:
HSV-1 strain F = assay: microbe, parasite or virus in culture; assay type: cell-based, Herpes simplex virus type 1
HIV in AA-2 cells = assay: HIV replication in AA-2 cells (p 24 ELISA); assay type: cell-based; settings: 3 mM
Experimental: The effects of 3 mM 6-ABP on HIV replication in AA-2 cells using the same experimental set-up as for FIG. 7 was followed by the conventional analysis of p 24 formation by automated ELISA tests. The results are shown in FIG. 8, where as in FIG. 7, the influence of varying HIV concentrations infecting HIV dilution, from 1:100 to 1:1600 or p 24 input, as shown in graph, was monitored.

AA-2 cells = assay: AA-2 cell count and viability; assay type: cell-based; settings: 3 mM
Experimental: The effects of 6-ABP treatment of AA-2 cells was directly analyzed by cell count and viability tests including cloning efficiency and trypan blue uptake. The AA2 cell culture having initial cell count per well 0.5×10^5 was submitted to treatment with 3 mM of 6-ABP and compared to untreated (Control) cell culture. The cells were counted 4 days after the treatment with 6-ABP.

[1] = system: HIV in human lymphoblasts; assay: HIV production in human lymphoblasts (p24 antigen); assay type: cell-based, HIV (isolates from blood of infected patients)
Experimental: In FIG. 10, human lymphoblast exposed to 6-ABP for 18 hours. The drug concentrations studied were between 0.01 to 10 mM. HIV production was studied in two time intervals, 6 and 12 days after the drug removal.
(§1) In FIGS. 11A through 11E, normal lymphoblasts stimulated with PHA are infected with HIV and at the same time are submitted to various concentrations from 0-10 mM 6-ABP. After the short exposure of 18 hours, both HIV and 6-ABP are removed, FIGS. 11A, 11C, 11E and the 6-ABP in the same concentrations is readded up to 4 days to cultures shown in FIGS. 11B and 11D. At 4 days, proliferation index measured by ^3 H-thymidine incorporation is determined in FIGS. 11A and 11B. […] In FIGS. 11C and […], the viral synthesis or inhibition is measured by p 24 assay.
The HIV isolates used in these experiments were isolated from the blood of infected patients. After isolation, HIV infection was established in CEM cells, and these infected cells were used to produce a stock of HIV virus that was titered to measure the concentration of tissue culture infective doses (TCID).
6 ABP was dissolved in saline in amount which was further diluted as required, and added to the culture medium containing cells at the indicated concentrations.
(§2) Human peripheral blood mononuclear cells from a noninfected, normal individual were stimulated for 2 to 3 days with phytohemagglutinin in tissue culture, washed, aliquoted and cultured overnight with 200 TCID or 50 TCID of HIV and were untreated or treated with 0.01, 0.1, 1.0 or 10.0 mM 6-ABP. An additional control was incubated with 10 mM 6-ABP without presence of HIV. After the overnight incubation, […]. The cells were placed in culture in medium containing IL-2, but in the absence of additional 6-ABP, and monitored at 6 days and 12 days for the production of HIV-p24 core antigen, or for measurements of particulate reverse transcriptase. A decrease in the amount of either of these indicators of HIV indicated an inhibition by 6-ABP in the ability of HIV to replicate in normal human lymphoblasts.
HIV p24 antigen was measured by ELISA, with a cutoff of 5 pgm/ml. Particulate reverse transcriptase was measured by centrifuging down free virus from tissue culture fluids, lysing HIV in a buffer containing detergent, magnesium, H3-labelled dTTP and poly rA.oligo dT primer, incubating for 1 hour, and measuring precipitable radioactivity, expressed as cpm per volume of HIV-containing medium.

[2] = system: HIV in human lymphoblasts; assay: HIV in human lymphoblasts (reverse transcriptase assay); assay type: cell-based; settings: 18 hours exposure, FIG. 11E
Experimental: as §1
as §2, with “A decrease in the amount of either of these indicators of HIV indicated an inhibition by 6-ABP in the ability of HIV to replicate in normal human lymphoblasts.” left out
HIV p24 antigen was measured by ELISA, with a cutoff of 5 pgm/ml. […]

[3] = assay type: in vivo
Experimental: This example illustrates the lack of toxicity after intraperitoneal administration of 6-ABP to mice.
Two toxicological tests administering 6-ABP to mice were performed under the following conditions.
One group of 5 mice received 6-ABP i.p. injection in amount of 1 g/kg.
Group of 50 white mice was injected daily with 250 mg/kg 6-ABP i.p. for 12 days.

ADPRT = assay: Binding to ADPRT; settings: enzymes other than ADPRT
[4] = Aqueous solubility and solution stability; assay type: physicochemical
HIV in whole blood = assay: HIV inhibition in whole blood of HIV infected patients; assay type: cell-based; settings: FIG. 10 results repeated in whole blood
[5] = system: HIV (activated by HSV IE-110) in U937 cells; assay: HIV growth activated by HSV IE110 in U937 cells (syncytium-forming assay)
Experimental: For the purpose of determining the ability of 6-ABP to inhibit HIV growth activation, the duplicate cells cultures were used. In experiments 1 and 2, U937 cells were transfected with HSV IE-110 gene and, CMV IE gene and infected HIV. […] In experiment 3, U937 cells transfected with HSV IE-110 and infected with HIV were treated with 3 mM of 6-ABP.
In all experiments shown in FIG. 3 and 4, the cells were exposed to 3 mM drug for 24 hrs.
DNA transfection was performed with DEAE dextran. Briefly, U937 cells (5×10^6) were exposed for 60 min. at 37° C. to a mixture of DEAE Dextran (1.05 ug/ml) and DNA in STBS buffer (25 mM Tris HCl, having pH 7.5, 137 mM NaCl, 0.5 MgCl2, 0.7 mM CaCl2 and 5 mM KCl and 0.6 mM Na2 HPO4) in 15 ml snap cap 6×35 mm polyethylene dishes from Costar, Cambridge, Mass., at 5×10^6 cells per well. Routinely, transfection mixtures contained 1.0 ug of target supercoiled plasmid and 0.1 ug DNA to equalize nucleic acid concentration effects. Transfected cells were harvested 40 to 44 hr post transfection in CAT harvest buffer (40 mM Tris, having pH 7.4 150 mM NaCl, 1 mM EDTA) and stored at -20° C. until assayed.
In one series of experiments, the effect of HSV IE110 and CMV IE2 gene expression on HIV replication using the syncytium assay formation on MT2 cells that defines HIV growth was examined. The ability of 6-ABP to inhibit HIV growth activation was studied in duplicate cultures. U937 cells were transfected with HSV IE110 CMV IE genes or mock transfected with pBR322 plasmid and duplicate cells were pretreated with HIV. Virus (HIV) growth was assayed at various times thereafter. HIV titers are expressed as syncytia forming units/ml.
Transfection was 24 hours before HIV infection. Sampling was done at days 3, 5, 6, and 8 post infection with HIV. 6-ABP treatment was 24 hours prior to transfection in order to allow intercellular 6-ABP concentration to equilibrate with external drug concentration. The timing chosen and drug dosage relate to drug penetration.

SMILES: Nc1ccc2oc(=O)ccc2c1 [6-ABP, 6-amino-1,2-benzopyrone]
- effect of time of drug addition, HSV-1 (F) (HSV-1 strain F; 1, 5 and 10 mM, zero time vs 4 hours after infection): essentially no differences found between the two modes of drug exposure
- dependence of inhibitory effect on cell type (HSV-1 strain F; HSV growth in HEp-2, Vero and MRC-5 cells): not affected by cell type
- inhibition at 1000 µM (HSV-1 strain F; Human alphaherpesvirus 1, 1 mM at 0 and 4 hours post infection, respectively, read-out: inhibition of HSV-1 growth): 60 to 65%
- inhibition at 1000 µM (HSV-1 strain F; Human alphaherpesvirus 1, 1 mM, 24 hours before infection, read-out: inhibition of HSV-1 growth): 50%
- inhibition at 10000 µM (HSV-1 strain F; Human alphaherpesvirus 1, 10 mM, 0 and 4 hours post infection, read-out: inhibition of HSV-1 growth): ~80%
- inhibition at 2000 µM (HSV-1 strain F; Human alphaherpesvirus 1, HEp-2, 24 h, 2 mM, 24 hrs preexposure, HEp-2 cells, FIG. 1A, read-out: inhibition of HSV-1 strain F growth): > 50%
- IC50 (HSV-1 strain F; Human alphaherpesvirus 1, 24 hours pretreatment, HEp-2 cells, read-out: concentration for 50% inhibition of growth, HSV-1 strain F): 2000 µM
- HIV replication (HIV in AA-2 cells; beyond a virus dilution of 1:1400): profoundly inhibited HIV replication
- p 24 generation (HIV in AA-2 cells; day 4, 1:1400 virus dilution): completely suppressed p 24 generation
- cell proliferation (AA-2 cells; AA-2 cells): inhibitory effect on cell proliferation
- Viability test / cellular toxicity (AA-2 cells; AA-2 cells, cloning efficiency and trypan blue uptake): no evidence of toxic effects; also recorded: does not coincide with any detectable cellular toxicity
- Cell Count After 4 days (AA-2 cells; initial count per well 0.5 × 10^5, control 1.5 × 10^5): 0.7 × 10^5 (± 35%)
- viral multiplication, p 24 assay ([1]; 0-10 mM, 18 hours or 4 days exposure, FIGS. 11C and 11D): almost completely inhibited
- HIV production in human lymphoblasts ([1]; 0.1 μM (so in the source), 18 hours exposure, 6 and 12 days): HIV production decreased dramatically
- decrease of HIV (p24 tests) ([1]; 0.1 mM, 18 hours exposure, 6 or 12 days past infection): dramatic decrease of HIV
- selectivity against HIV replication vs cellular DNA synthesis ([1]; 18 hr exposure, FIG. 11): great selectivity of 6-ABP against HIV replication
- virus inhibition, reverse transcriptase assay [2]: virus inhibition
- behavior ([3]; 250 mg/kg i.p. daily, 12 days): quite normal
- toxic effects ([3]; 250 mg/kg i.p. daily, 12 days): no visible toxic effects
- weight gain ([3]; 250 mg/kg i.p. daily, 12 days): no disruption in their normal weight gain
- seizures and weakness in one mouse ([3]; 1 g/kg i.p., 4 hours after injection, recovered in 18 hours): seizures and hind leg weakness but then completely recovered in 18 hours
- toxic symptoms ([3]; 1 g/kg i.p., single, 24 hours observation): no toxic symptoms in 4 mice
- effect on other enzymes (ADPRT): no other enzymes are activated or inhibited
- solution stability ([4]; 10-12 mM solution, pH 7.2-7.9, room temperature, in the dark): stable for months at room temperature
- solubility ([4]; aqueous media, pH 7.2-7.9): 10 to 12 mM (≈ 1610 to 1930 µg/mL)
- degraded ([4]; aqueous solution, 10-12 mM solution, months at room temperature, in the dark, read-out: decomposition of solution): < 0.1%
- HIV inhibition in whole blood (HIV in whole blood): essentially reproduced in whole blood of HIV infected patients
- effect on activation by HSV IE110 ([5]; 1 mM): virtually abrogates activation by HSV IE110
- HIV growth, U937 + HSV IE110 + 6-ABP ([5]; 1 mM, day 3): 32 SFU/ml
- HIV growth, U937 + HSV IE110 + 6-ABP ([5]; 1 mM, day 5): 64 SFU/ml
- HIV growth, U937 + HSV IE110 + 6-ABP ([5]; 1 mM, day 6): 100 SFU/ml
- HIV growth, U937 + HSV IE110 + 6-ABP ([5]; 1 mM, day 8): 100 SFU/ml
- effect on IE-110(HSV)-activated growth of HIV ([5]; 3 mM, FIG. 3): profoundly depresses IE-110(HSV)-activated growth of HIV
- HIV growth, U937 + HSV IE-110, reduced to background levels ([5]; 3 mM, days 4 to 8, FIG. 3): 250-300 SFU per ml
